In ChEMBL document CHEMBL4507305, “Data for DCP probe TP-024” (2021):
Calls of active or inactive are those of the source. The calls are words filed in the database; no cut-off is given here.

Key:
[1] = target: 5-hydroxytryptamine receptor 5A (Homo sapiens) (UniProt P47898); settings: Compound concentration 10.0 uM
[2] = system: Tyrosine-protein kinase ABL1 (Homo sapiens), P00519 [H396P]; settings: Compound concentration 1000.0 nM
[3] = target: Beta-adrenergic receptor kinase 1 (Homo sapiens) (UniProt P25098); settings: Compound concentration 1000.0 nM
[4] = target: Aurora kinase B (Homo sapiens) (UniProt Q96GD4); settings: Compound concentration 1000.0 nM
[5] = target: Homeodomain-interacting protein kinase 3 (Homo sapiens) (UniProt Q9H422); settings: Compound concentration 1000.0 nM
[6] = system: Receptor-type tyrosine-protein kinase FLT3 (Homo sapiens), P36888 [UNDEFINED MUTATION]; settings: Compound concentration 1000.0 nM
[7] = target: Protein-tyrosine kinase 6 (Homo sapiens) (UniProt Q13882); settings: Compound concentration 1000.0 nM
[8] = target: Tyrosine-protein kinase ZAP-70 (Homo sapiens) (UniProt P43403); settings: Compound concentration 1000.0 nM
[9] = target: Muscarinic acetylcholine receptor M3 (Homo sapiens) (UniProt P20309); settings: Compound concentration 10.0 uM
[10] = system: Tyrosine-protein kinase ABL1 (Homo sapiens), P00519 [F317I]; settings: Compound concentration 1000.0 nM
[11] = target: T1, G protein-coupled receptor (Rattus norvegicus, UniProt Q9WU09); experiment: cAMP increase in rat primary cultured striatal neurons
[12] = target: GABA-A receptor; anion channel (Rattus norvegicus) (UniProt O09028+P15431+P18506+P18508+P19969+P20236+P23574+P23576+P28471+P28473+P30191+P62813+P63079+P63138+Q91ZM7+Q9ES14); settings: Compound concentration 10.0 uM
[13] = target: Calcium/calmodulin-dependent protein kinase type 1D (Homo sapiens) (UniProt Q8IU85); settings: Compound concentration 1000.0 nM
[14] = system: Phosphatidylinositol 4,5-bisphosphate 3-kinase catalytic subunit alpha isoform (Homo sapiens), P42336 [E542K]; settings: Compound concentration 1000.0 nM
[15] = target: Macrophage-stimulating protein receptor (Homo sapiens) (UniProt Q04912); settings: Compound concentration 1000.0 nM
[16] = target: Cyclin-dependent kinase 16 (Homo sapiens) (UniProt Q00536); settings: Compound concentration 1000.0 nM
[17] = target: Sodium-dependent dopamine transporter (Homo sapiens) (UniProt Q01959); settings: Compound concentration 10.0 uM
[18] = target: Dual specificity tyrosine-phosphorylation-regulated kinase 1A (Homo sapiens) (UniProt Q13627); settings: Compound concentration 1000.0 nM
[19] = target: T1, G protein-coupled receptor; experiment: CHO-based cAMP assay (rat)
[20] = target: Calcium/calmodulin-dependent protein kinase type II subunit delta (Homo sapiens) (UniProt Q13557); settings: Compound concentration 1000.0 nM
[21] = target: Hepatocyte growth factor receptor (Homo sapiens) (UniProt P08581); settings: Compound concentration 1000.0 nM
[22] = target: G-protein coupled receptor 52 (Homo sapiens, UniProt Q9Y2T5); experiment: CHO-based cAMP assay (human); format: functional

Chain of Phosphatidylinositol 4,5-bisphosphate 3-kinase catalytic subunit alpha isoform (Homo sapiens), P42336 [E542K] (P42336 whole entry E542K, canonical isoform): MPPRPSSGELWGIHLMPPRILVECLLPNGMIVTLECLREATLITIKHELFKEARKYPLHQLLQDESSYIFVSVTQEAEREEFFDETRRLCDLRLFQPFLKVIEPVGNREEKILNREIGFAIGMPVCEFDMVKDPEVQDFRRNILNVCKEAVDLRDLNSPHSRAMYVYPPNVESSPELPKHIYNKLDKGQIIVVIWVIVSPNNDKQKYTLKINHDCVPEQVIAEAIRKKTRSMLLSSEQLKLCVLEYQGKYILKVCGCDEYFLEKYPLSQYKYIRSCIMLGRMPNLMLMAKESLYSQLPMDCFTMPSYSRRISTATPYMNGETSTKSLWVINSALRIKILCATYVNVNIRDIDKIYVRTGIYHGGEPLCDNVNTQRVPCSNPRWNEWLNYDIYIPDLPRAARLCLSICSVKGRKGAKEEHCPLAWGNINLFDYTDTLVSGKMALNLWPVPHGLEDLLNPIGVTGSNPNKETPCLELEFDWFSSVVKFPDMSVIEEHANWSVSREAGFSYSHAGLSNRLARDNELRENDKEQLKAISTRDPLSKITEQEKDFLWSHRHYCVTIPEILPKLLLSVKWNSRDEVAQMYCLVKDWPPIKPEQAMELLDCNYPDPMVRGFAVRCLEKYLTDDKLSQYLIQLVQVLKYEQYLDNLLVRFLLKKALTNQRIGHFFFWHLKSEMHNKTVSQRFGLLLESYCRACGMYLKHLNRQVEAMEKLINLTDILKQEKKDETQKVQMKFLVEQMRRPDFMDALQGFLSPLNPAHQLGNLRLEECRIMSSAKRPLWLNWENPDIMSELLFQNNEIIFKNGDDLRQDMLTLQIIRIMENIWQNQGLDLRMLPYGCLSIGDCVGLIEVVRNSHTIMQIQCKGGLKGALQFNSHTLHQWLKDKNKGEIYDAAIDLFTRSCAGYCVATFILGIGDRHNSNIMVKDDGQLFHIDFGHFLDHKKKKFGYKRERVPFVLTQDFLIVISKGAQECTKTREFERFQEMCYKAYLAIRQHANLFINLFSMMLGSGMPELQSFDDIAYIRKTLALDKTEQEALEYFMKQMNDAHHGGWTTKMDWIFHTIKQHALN
Chain of Tyrosine-protein kinase ZAP-70 (Homo sapiens) (P43403 whole entry): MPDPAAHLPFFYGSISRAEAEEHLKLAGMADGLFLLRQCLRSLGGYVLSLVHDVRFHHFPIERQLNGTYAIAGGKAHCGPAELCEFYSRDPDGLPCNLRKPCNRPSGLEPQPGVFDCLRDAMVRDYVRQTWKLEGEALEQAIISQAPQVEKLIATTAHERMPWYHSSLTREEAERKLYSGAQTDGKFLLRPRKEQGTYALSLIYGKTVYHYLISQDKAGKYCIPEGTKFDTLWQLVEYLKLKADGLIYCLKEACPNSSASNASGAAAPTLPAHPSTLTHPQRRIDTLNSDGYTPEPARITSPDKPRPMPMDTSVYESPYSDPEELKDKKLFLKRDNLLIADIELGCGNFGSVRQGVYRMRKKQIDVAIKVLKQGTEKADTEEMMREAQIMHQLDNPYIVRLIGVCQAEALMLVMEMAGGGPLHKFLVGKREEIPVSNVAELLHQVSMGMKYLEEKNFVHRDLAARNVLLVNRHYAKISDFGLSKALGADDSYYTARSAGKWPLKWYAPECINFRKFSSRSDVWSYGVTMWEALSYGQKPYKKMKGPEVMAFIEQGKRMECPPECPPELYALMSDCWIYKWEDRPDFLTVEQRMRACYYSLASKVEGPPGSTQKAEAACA
Chain of Calcium/calmodulin-dependent protein kinase type 1D (Homo sapiens) (Q8IU85 whole entry, looked up, canonical isoform): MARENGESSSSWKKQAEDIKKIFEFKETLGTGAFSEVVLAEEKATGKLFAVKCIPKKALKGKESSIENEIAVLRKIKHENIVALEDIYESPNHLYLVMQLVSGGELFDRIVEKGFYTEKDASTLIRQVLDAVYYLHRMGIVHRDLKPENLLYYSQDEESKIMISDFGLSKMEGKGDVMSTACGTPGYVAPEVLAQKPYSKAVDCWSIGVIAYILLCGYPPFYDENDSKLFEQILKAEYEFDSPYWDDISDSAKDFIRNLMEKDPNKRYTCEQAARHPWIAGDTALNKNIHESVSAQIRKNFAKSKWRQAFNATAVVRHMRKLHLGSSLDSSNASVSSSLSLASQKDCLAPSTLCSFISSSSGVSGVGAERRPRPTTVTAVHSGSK
Chain of Beta-adrenergic receptor kinase 1 (Homo sapiens) (P25098 whole entry): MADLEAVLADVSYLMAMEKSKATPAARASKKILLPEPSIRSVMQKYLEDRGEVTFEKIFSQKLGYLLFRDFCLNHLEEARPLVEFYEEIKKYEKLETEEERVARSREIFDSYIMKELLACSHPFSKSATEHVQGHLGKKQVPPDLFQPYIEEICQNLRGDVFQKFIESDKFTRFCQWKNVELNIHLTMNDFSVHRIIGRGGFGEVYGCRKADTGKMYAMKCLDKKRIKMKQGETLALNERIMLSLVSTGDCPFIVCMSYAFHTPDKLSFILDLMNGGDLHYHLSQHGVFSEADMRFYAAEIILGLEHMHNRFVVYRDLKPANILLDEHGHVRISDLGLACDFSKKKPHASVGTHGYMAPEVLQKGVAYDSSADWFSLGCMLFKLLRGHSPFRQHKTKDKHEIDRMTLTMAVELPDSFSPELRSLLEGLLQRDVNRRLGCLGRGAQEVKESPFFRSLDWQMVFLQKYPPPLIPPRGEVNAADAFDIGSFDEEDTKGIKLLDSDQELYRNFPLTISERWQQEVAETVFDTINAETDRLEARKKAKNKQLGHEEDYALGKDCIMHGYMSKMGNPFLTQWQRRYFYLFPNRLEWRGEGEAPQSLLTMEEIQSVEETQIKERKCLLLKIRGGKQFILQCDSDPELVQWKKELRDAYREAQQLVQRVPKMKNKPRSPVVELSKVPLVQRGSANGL
Chain of Protein-tyrosine kinase 6 (Homo sapiens) (Q13882 whole entry, looked up): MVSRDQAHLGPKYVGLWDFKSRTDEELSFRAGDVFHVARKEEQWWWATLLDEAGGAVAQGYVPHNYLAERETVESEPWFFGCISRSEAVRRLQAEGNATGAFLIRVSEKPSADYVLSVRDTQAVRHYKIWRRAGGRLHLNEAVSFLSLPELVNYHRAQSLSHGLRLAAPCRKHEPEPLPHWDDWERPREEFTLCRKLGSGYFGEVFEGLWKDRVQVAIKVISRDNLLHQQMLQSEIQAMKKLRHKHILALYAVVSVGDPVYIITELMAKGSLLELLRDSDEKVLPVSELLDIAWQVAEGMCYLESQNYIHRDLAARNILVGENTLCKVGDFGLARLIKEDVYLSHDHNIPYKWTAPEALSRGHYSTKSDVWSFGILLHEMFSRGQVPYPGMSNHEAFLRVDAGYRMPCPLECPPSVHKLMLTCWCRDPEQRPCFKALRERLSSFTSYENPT
Chain of Calcium/calmodulin-dependent protein kinase type II subunit delta (Homo sapiens) (Q13557 whole entry): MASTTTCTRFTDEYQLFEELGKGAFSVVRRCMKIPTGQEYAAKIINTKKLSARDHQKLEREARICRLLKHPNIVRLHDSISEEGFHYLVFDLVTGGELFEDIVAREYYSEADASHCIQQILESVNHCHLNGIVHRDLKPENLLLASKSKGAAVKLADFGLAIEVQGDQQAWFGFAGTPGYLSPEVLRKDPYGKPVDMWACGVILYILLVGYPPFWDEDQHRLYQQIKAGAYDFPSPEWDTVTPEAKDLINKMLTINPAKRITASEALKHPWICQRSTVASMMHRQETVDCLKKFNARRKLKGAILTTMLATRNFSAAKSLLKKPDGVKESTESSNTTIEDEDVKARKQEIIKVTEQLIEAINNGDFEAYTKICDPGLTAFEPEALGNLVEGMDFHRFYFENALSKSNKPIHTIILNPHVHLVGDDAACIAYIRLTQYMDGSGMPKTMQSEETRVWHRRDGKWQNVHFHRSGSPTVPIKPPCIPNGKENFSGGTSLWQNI
Chain of Aurora kinase B (Homo sapiens) (Q96GD4 whole entry): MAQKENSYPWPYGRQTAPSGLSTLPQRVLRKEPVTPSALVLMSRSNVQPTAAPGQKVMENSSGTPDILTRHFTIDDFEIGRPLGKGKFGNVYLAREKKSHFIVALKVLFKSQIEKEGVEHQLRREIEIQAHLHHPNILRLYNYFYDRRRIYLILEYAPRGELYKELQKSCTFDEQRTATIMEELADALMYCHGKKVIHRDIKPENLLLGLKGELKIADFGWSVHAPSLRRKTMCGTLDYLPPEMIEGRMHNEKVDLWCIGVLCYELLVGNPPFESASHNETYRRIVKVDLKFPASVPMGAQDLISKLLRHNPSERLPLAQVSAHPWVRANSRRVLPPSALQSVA
T1 sequence (Q9WU09 whole entry): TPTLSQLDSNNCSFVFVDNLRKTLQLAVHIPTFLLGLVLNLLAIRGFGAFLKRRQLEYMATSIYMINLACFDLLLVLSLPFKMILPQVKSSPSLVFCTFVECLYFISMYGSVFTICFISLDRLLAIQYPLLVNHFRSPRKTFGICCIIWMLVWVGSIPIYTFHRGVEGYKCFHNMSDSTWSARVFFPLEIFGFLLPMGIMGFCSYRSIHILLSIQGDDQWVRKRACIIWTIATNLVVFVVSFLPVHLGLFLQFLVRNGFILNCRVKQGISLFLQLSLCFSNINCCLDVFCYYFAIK
Chain of Cyclin-dependent kinase 16 (Homo sapiens) (Q00536 whole entry): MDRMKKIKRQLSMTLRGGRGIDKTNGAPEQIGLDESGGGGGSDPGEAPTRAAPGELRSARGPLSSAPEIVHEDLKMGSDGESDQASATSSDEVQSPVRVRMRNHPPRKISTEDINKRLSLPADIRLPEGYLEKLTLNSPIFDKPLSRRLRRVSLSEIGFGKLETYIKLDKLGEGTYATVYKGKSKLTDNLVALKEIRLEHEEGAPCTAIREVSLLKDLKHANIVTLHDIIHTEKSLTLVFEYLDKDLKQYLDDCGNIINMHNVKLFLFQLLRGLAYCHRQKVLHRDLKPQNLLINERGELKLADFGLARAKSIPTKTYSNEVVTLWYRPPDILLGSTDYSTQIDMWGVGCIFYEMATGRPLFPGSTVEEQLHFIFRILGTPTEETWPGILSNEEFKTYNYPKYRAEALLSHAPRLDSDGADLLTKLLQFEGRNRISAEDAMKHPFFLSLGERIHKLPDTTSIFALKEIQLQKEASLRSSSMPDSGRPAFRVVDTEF

Row | SMILES | inhibition [1] [%] | residual activity [2] [%] | residual activity [3] [%] | residual activity [4] [%] | residual activity [5] [%] | residual activity [6] [%] | residual activity [7] [%] | residual activity [8] [%] | residual activity [10] [%] | inhibition [12] [%] | residual activity [13] [%] | residual activity [14] [%] | residual activity [15] [%] | residual activity [16] [%] | residual activity [18] [%] | residual activity [20] [%] | residual activity [21] [%] | other results
1 | Cc1cc(-n2nc(Cc3cc(F)cc(C(F)(F)F)c3)nc2C)ccc1C(N)=O [TP-024] | 7.99 | 98 | 100 | 87 | 100 | 100 | 100 | 82 | 85 | 12.8 | 96 | 73 | 100 | 100 | 92 | 100 | 81 | inhibition [9]: 1.72%; EC50 [11]: 0.151 µM (active); inhibition [17]: 7.33%; EC50 [19]: 0.134 µM (active)
2 | Cc1nc(Cc2cccc(C(F)(F)F)c2)sc1-c1ccc(C(N)=O)nc1 [TP-024n] | 3.99 | 96 | 100 | 100 | 100 | 100 | 100 | 93 | 83 | 14.8 | 94 | 66 | 100 | 100 | 67 | 100 | 63 | EC50 [22]: > 1 µM (not active)
